Legend:
Assay type in all cases: in vivo
[1] = system: Blumeria graminis f. Sp. tritici (Erysiphe graminis f. sp. tritici); assay: Blumeria graminis f. sp. tritici / wheat / leaf disc preventative (powdery mildew on wheat); details: foliar, wheat leaf segments cv. Kanzler, inoculated 1 day after application, assessed 6-8 days after application, compared to untreated, read-out: disease control
Experimental: Blumeria graminis f. Sp. tritici (Erysiphe graminis f. sp. tritici)/Wheat/Leaf Disc Preventative (Powdery Mildew on Wheat) Wheat leaf segments cv. Kanzler were placed on agar in a multiwell plate (24-well format) and sprayed with the formulated test compound diluted in water. The leaf disks were inoculated by shaking powdery mildew infected plants above the test plates 1 day after application. The inoculated leaf disks were incubated at 20° C. and 60% rh under a light regime of 24 h darkness followed by 12 h light/12 h darkness in a climate chamber and the activity of a compound was assessed as percent disease control compared to untreated when an appropriate level of disease damage appears on untreated check leaf segments (6-8 days after application). The following compounds gave at 200 ppm give at least 80% disease control in this test when compared to untreated control leaf disks under the same conditions, which show extensive disease development: […]

[2] = system: Puccinia recondita f. sp. tritici; assay: Puccinia recondita f. sp. tritici / wheat / leaf disc preventative (brown rust); details: foliar, 168 h, wheat leaf segments cv. Kanzler, inoculated 1 day after application, assessed 7-9 days after application, compared to untreated, read-out: disease control
Experimental: Puccinia recondita f. sp. tritici/Wheat/Leaf Disc Preventative (Brown Rust) Wheat leaf segments cv. Kanzler were placed on agar in multiwell plates (24-well format) and sprayed with the formulated test compound diluted in water. The leaf disks were inoculated with a spore suspension of the fungus 1 day after application. The inoculated leaf segments were incubated at 19° C. and 75% rh under a light regime of 12 h light/12 h darkness in a climate cabinet and the activity of a compound was assessed as percent disease control compared to untreated when an appropriate level of disease damage appears in untreated check leaf segments (7-9 days after application). The following compounds gave at 200 ppm gave at least 80% disease control in this test when compared to untreated control leaf disks under the same conditions, which show extensive disease development: […]

[3] = system: Puccinia recondita f. sp. tritici; assay: Puccinia recondita f. sp. tritici / wheat / leaf disc curative (brown rust); details: foliar, wheat leaf segments cv. Kanzler, compound applied 1 day after inoculation, assessed 6-8 days after application, compared to untreated, read-out: disease control
Experimental: Puccinia recondita f. sp. tritici/Wheat/Leaf Disc Curative (Brown Rust) Wheat leaf segments cv. Kanzler are placed on agar in multiwell plates (24-well format). The leaf segments are inoculated with a spore suspension of the fungus. Plates were stored in darkness at 19° C. and 75% rh. The formulated test compound diluted in water was applied 1 day after inoculation. The leaf segments were incubated at 19° C. and 75% rh under a light regime of 12 h light/12 h darkness in a climate cabinet and the activity of a compound was assessed as percent disease control compared to untreated when an appropriate level of disease damage appears in untreated check leaf segments (6-8 days after application). The following compounds gave at 200 ppm gave at least 80% disease control in this test when compared to untreated control leaf disks under the same conditions, which show extensive disease development: […]

Phakopsora pachyrhizi = Phakopsora pachyrhizi on soybean, preventive treatment; details: 264 h, 1 day preventive, triazole tolerant soybean rust strain, evaluated 11 days after application, compared to untreated, read-out: disease control
Experimental: Phakopsora pachyrhizi on Soybean, Preventive Treatment
The compound activity was tested under 1 day preventive conditions. Soybean plants with a fully enfolded first trifoliate leaf were sprayed with a track sprayer and 50 l/ha spray volume with the test compounds, either solo or in tankmix as shown in the table below. 1 day after application leaf discs were cut from the first trifoliate leaf and placed in multiwell plates on water-agar. 5 leaf discs per treatment where infested with spores of a triazole tolerant soybean rust strain. The multiwell plates where sealed and placed in an incubator 48 h in darkness and 12 h light/dark cycle afterwards. Rust infestation on leaf discs was evaluated visually 11 days after application and average activity calculated in relation to disease severity on untreated check leaf discs.
The following compounds gave at 200 ppm gave at least 80% disease control in this test when compared to untreated control leaf disks under the same conditions, which show extensive disease development: […]

Measured: pest or weed control at 200 ppm

CCN(C)C=Nc1cc(Br)c(OC(C)COc2ccccc2)nc1C (stereo not drawn) [Q.028, N′-[5-bromo-2-methyl-6-(1-methyl-2-phenoxy-ethoxy)-3-pyridyl]-N-ethyl-N-methyl-formamidine]
≥ 80%: all assays above

CCCOCC(C)Oc1nc(C)c(N=CN(C)C2CC2)cc1Br (stereo not drawn) [Q.029, N′-[5-bromo-2-methyl-6-(1-methyl-2-propoxy-ethoxy)-3-pyridyl]-N-cyclopropyl-N-methyl-formamidine]
≥ 80%: all assays above

CCCOCC(C)Oc1nc(C)c(N=CN2CCC2)cc1Br (stereo not drawn) [Q.030, 1-(azetidin-1-yl)-N-[5-bromo-2-methyl-6-(1-methyl-2-propoxy-ethoxy)-3-pyridyl]methanimine]
≥ 80%: all assays above
